Data published in ChEMBL document CHEMBL4321845, “Discovery and Characterization of Potent Pan-Genotypic HCV NS5A Inhibitors Containing Novel Tricyclic Central Core Leading to Clinical Candidate” (J Med Chem, 2019).

Legend:
[1] = target: T1, Nonstructural protein 5A (Hepatitis C virus) (UniProt Q5L478); assay: Inhibition of NS5A in HCV genotype 2a infected in human Huh7.5/J6/JFH1/EMCVIRES/hRlucNeo cells assessed as inhibition of replicon levels at 1 uM incubated for 72 hrs by luciferase reporter gene assay; conditions: Hepatitis C virus subtype 2a
T1 sequence (whole entry): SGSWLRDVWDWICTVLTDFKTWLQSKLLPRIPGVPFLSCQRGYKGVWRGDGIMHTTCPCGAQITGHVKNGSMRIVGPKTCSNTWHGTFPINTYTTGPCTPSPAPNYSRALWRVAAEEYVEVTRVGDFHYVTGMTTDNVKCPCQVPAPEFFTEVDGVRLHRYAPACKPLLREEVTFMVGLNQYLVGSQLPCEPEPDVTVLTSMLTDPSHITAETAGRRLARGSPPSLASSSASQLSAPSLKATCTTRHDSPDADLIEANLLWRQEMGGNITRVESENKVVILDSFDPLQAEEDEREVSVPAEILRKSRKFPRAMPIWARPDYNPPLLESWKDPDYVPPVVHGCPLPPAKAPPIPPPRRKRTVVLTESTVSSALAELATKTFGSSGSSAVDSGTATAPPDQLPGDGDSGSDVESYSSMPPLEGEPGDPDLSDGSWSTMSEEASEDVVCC

[2] = target: T1, Nonstructural protein 5A (Hepatitis C virus); assay: Inhibition of NS5A in HCV genotype 1b infected in human HuH7.5/Con1/SG-Neo(I)-hRluc2aUb cells assessed as inhibition of replicon levels at 0.1 uM incubated for 72 hrs by luciferase reporter gene assay relative to control; conditions: Hepatitis C virus subtype 1b
CYP3A4 = CYP3A4 (Homo sapiens, UniProt P08684); assay: Inhibition of CYP3A4 in pooled human liver microsomes at 10 uM pre-incubated for 5 mins before NADPH addition and measured after 10 mins by UPLC-MS/MS analysis relative to control; assay type: ADME
[3] = Cytotoxicity in human HEK293 cells assessed as inhibition of cell growth at 3 uM incubated for 72 hrs by CCK8 assay relative to control; assay type: cell-based; conditions: read-out: GI
[4] = Cytotoxicity in human HepG2 cells assessed as inhibition of cell growth at 3 uM incubated for 72 hrs by CCK8 assay relative to control; assay type: cell-based; conditions: read-out: GI
[5] = Cytotoxicity in human HuH7 cells assessed as inhibition of cell growth at 3 uM incubated for 72 hrs by CCK8 assay relative to control; assay type: cell-based, Huh-7; conditions: read-out: GI
[6] = AUC(last) in rat at 1 mg/kg, iv measured up to 24 hrs by LC-MS/MS analysis; assay type: ADME, organism-based; set-up: dose 1 mg/kg, route intravenous, time 0 - last; conditions: in vivo
[7] = Volume of distribution at steady state in rat at 1 mg/kg, iv measured up to 24 hrs by LC-MS/MS analysis; assay type: ADME, organism-based; conditions: in vivo, read-out: Vdss
[8] = Clearance in rat at 1 mg/kg, iv measured up to 24 hrs by LC-MS/MS analysis; assay type: ADME, organism-based; conditions: in vivo
[9] = Protein binding in human plasma; assay type: ADME, cell-free; conditions: read-out: PPB
[10] = Cytotoxicity in human HEK293 cells assessed as inhibition of cell growth at 10 uM incubated for 72 hrs by CCK8 assay relative to control; assay type: cell-based; conditions: read-out: GI
[11] = Drug metabolism in human liver microsomes assessed as metabolic rate at 1 uM preincubated for 5 mins before NADPH addition and measured up to 30 mins by LC-MS/MS analysis; assay type: ADME, Microsome; conditions: 0.5 h
[12] = Oral bioavailability in rat at 10 mg/kg measured up to 24 hrs by LC-MS/MS analysis; assay type: ADME, organism-based; conditions: in vivo
[13] = AUC (last) in rat at 10 mg/kg, po measured up to 24 hrs by LC-MS/MS analysis; assay type: ADME, organism-based; set-up: dose 10 mg/kg, time 0 - last, route oral; conditions: in vivo
[14] = Ratio of dug level in liver to plasma of Wistar rat at 10 mg/kg, po measured at 4 hrs by LC-MS/MS analysis; assay type: ADME, organism-based
[15] = Drug level in plasma of Wistar rat at 10 mg/kg, po measured at 4 hrs by LC-MS/MS analysis; assay type: ADME, organism-based
[16] = Cmax in rat at 10 mg/kg, po measured up to 24 hrs by LC-MS/MS analysis; assay type: ADME, organism-based; set-up: dose 10 mg/kg, route oral; conditions: in vivo
CYP2D6 = CYP2D6 (Homo sapiens, UniProt P10635); assay: Inhibition of CYP2D6 in pooled human liver microsomes at 10 uM pre-incubated for 5 mins before NADPH addition and measured after 10 mins by UPLC-MS/MS analysis relative to control; assay type: ADME
[17] = Cytotoxicity in human HepG2 cells assessed as inhibition of cell growth at 10 uM incubated for 72 hrs by CCK8 assay relative to control; assay type: cell-based; conditions: read-out: GI
[18] = Protein binding in rat plasma; assay type: ADME, cell-free; conditions: read-out: PPB
[19] = Drug metabolism in rat liver microsomes assessed as metabolic rate at 1 uM preincubated for 5 mins before NADPH addition and measured up to 30 mins by LC-MS/MS analysis; assay type: ADME, Microsome; conditions: 0.5 h
[20] = Half life in rat at 1 mg/kg, iv measured up to 24 hrs by LC-MS/MS analysis; assay type: ADME, organism-based; conditions: in vivo
CYP2C9 = CYP2C9 (Homo sapiens, UniProt P11712); assay: Inhibition of CYP2C9 in pooled human liver microsomes at 10 uM pre-incubated for 5 mins before NADPH addition and measured after 10 mins by UPLC-MS/MS analysis relative to control; assay type: ADME
[21] = Drug level in liver of Wistar rat at 10 mg/kg, po measured at 4 hrs by LC-MS/MS analysis; assay type: ADME, organism-based; conditions: read-out: Drug uptake
[22] = Drug level in liver of Wistar rat at 10 mg/kg, po measured up to 8 hrs by LC-MS/MS analysis; assay type: ADME, organism-based; conditions: in vivo

Sequence of CYP3A4 (P08684 whole entry): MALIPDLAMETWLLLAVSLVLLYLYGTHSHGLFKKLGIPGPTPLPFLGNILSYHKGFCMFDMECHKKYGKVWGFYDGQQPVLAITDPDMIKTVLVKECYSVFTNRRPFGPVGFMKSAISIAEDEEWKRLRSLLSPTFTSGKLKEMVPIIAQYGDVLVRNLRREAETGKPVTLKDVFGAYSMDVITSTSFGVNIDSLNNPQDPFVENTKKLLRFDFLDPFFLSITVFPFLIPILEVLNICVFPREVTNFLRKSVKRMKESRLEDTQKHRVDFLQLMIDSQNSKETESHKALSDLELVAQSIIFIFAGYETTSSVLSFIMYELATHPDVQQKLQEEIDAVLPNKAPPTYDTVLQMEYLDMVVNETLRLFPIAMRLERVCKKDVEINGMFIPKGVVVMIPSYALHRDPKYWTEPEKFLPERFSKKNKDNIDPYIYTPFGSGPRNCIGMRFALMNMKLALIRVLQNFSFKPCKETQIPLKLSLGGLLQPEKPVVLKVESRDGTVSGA
Sequence of CYP2D6 (P10635 whole entry): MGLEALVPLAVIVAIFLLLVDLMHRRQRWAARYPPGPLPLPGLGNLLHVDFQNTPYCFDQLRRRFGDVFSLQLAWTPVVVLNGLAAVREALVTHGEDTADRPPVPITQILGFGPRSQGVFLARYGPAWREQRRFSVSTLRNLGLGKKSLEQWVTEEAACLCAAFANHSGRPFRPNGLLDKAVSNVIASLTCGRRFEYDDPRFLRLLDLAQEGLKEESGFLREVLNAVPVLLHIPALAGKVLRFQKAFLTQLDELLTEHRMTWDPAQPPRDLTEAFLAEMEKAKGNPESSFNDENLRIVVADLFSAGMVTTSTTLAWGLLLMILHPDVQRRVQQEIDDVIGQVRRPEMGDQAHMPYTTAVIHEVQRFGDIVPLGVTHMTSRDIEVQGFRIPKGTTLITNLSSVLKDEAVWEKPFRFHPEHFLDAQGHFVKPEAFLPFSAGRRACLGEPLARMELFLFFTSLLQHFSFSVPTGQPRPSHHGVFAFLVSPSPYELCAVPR
Sequence of CYP2C9 (P11712 whole entry): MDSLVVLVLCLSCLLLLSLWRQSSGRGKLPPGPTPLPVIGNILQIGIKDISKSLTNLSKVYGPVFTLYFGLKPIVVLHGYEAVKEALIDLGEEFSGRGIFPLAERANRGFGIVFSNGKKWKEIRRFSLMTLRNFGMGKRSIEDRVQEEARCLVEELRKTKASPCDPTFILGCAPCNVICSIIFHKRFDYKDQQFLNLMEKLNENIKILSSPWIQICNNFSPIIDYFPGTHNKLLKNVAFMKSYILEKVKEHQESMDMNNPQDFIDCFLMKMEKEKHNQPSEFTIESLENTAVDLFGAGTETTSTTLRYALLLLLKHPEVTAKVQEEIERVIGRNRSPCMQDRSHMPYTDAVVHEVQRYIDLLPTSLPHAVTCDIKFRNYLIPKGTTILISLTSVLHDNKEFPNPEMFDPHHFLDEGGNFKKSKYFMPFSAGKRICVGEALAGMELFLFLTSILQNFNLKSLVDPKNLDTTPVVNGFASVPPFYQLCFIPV

`COC(=O)N[C@H](C(=O)N1CCC[C@H]1c1ncc(-c2ccc3c(c2)CC2c4ccc(-c5cnc([C@@H]6CCCN6C(=O)[C@@H](NC(=O)OC)C(C)C)[nH]5)cc4CC32)[nH]1)C(C)C` (stereo not given in full) gave an inhibition [1] of 11% and an inhibition [2] of 75%.
Work on `COC(=O)N[C@H](C(=O)N1CCC[C@H]1c1nc(Cl)c(-c2ccc3c(c2)OCC(C)(C)COc2cc(-c4[nH]c([C@@H]5CCCN5C(=O)[C@@H](NC(=O)OC)C(C)C)nc4Cl)ccc2-3)[nH]1)C(C)C` yielded an inhibition at 10 min, 10 µM (CYP3A4) of 6%, an inhibition at 72 h, 3 µM [3] of 44% and an inhibition at 72 h, 3 µM [4] of 23%. The inhibition at 72 h, 3 µM [5] was 25%, the AUC(0-t) at 24 h [6] was 0.43 µM·h and the Vd [7] was 10 L/kg. It also gave a clearance [8] of 37 mL/min/kg, a fraction unbound [9] of less than 0.01 and an inhibition at 72 h, 10 µM [10] of 63%. It also gave a Drug metabolism [11] of 0 nmol/min/mg, a bioavailability [12] of 56% and an AUC(0-t) at 24 h [13] of 2.4 µM·h. It also gave a Kp at 4 h [14] of 11, a concentration at 4 h [15] of 640 nM and a Cmax [16] of 500 nM. It also gave an inhibition at 10 min, 10 µM (CYP2D6) of 6%, an inhibition at 72 h, 10 µM [17] of 27% and a fraction unbound [18] of less than 0.01. For the same molecule, the Drug metabolism [19] was 0 nmol/min/mg, the half-life [20] was 3.8 h and the inhibition at 10 min, 10 µM (CYP2C9) was 29%. For the same molecule, the concentration at 4 h [21] was 7100 nM and the Drug uptake [22] was “Active”.
